In US7320785B2, “Compositions and methods for modulation of DARPP-32 phosphorylation” (The Rockefeller University, priority 2001, dated 2008):
Marks after values point to notes of the source that are not given here.

Assays:
[1] = test system: DARPP-32; test: DARPP-32 phosphorylation in mouse brain slices, immunoblotting with phosphorylation state-specific antibodies; settings: slices from hippocampus, prefrontal cortex, striatum; fluoxetine 10 M printed
[2] = test system: inhibitor-1; test: Total inhibitor-1 protein levels after chronic treatment with fluoxetine; format: in vivo, mouse; settings: chronic fluoxetine 10 mg/kg i.p.
Procedure: (§1) In all experiments, hippocampi, prefrontal cortices, and striata were rapidly dissected out and stored at −80° C. until assayed.

[3] = test system: DARPP-32; test: Total DARPP-32 protein levels after chronic treatment with fluoxetine; format: in vivo, mouse; settings: chronic fluoxetine 10 mg/kg i.p., compared with chronic saline
Procedure: as §1

[4] = test system: DARPP-32 mRNA; test: DARPP-32 mRNA levels by in situ hybridization after chronic fluoxetine; format: in vivo, mouse; settings: fluoxetine 10 mg/kg i.p. once daily for 19 days
Procedure: (§2) Brains were rapidly dissected out and frozen at −80° C. Cryostat sections (12-μm) were prepared and hybridized with [α-^35S]UTP-labeled riboprobes prepared by in vitro transcription from cDNA clones corresponding to full-length clones of DARPP-32 or inhibitor-1 as described (21). After hybridization, the sections were exposed to Biomax MR film (Kodak) for 2 14 days and analyzed with a Microcomputer Imaging Device system (M4, Imaging Research, St. Catherine's, ON, Canada).

[5] = test system: DARPP-32; test: DARPP-32 phosphorylation in vivo in mice after i.p. injection, immunoblotting; parameters: species or system mouse
[6] = test system: WT and DARPP-32 KO mice; test: Locomotor activity measurements in activity monitors; format: in vivo, mouse; settings: fluoxetine at the doses examined (5 or 10 mg/kg)
Procedure: Locomotor activity of WT and DARPP-32 KO mice was measured in activity monitors (43×44×45 cm) equipped with both horizontal and vertical sensors (Opto-Varimex, Columbus Instruments, Columbus, Ohio). Mice were acclimated to the boxes for 1 h, […] before the day of the experiment. The day of the experiment, mice were placed in the boxes for 20 min (habituation period) before drug administration. […] Locomotor activity parameters (distance traveled and stereotypic movements) were quantified by using the AutoTrack System (Columbus Instruments).

[7] = test system: WT and DARPP-32 KO mice; test: Tail-suspension test for antidepressant efficacy; format: in vivo, mouse; settings: fluoxetine 5 or 10 mg/kg i.p. 30 min before the trial
[8] = test system: inhibitor-1 mRNA; test: Inhibitor-1 mRNA levels by in situ hybridization after chronic fluoxetine; format: in vivo, mouse; settings: hippocampus, prefrontal cortex, striatum; fluoxetine 10 mg/kg i.p. once daily for 19 days
Procedure: as §2

[9] = test system: depressed patients; settings: several clinical trials; cited from earlier work
[10] = test system: phospho-Ser137-DARPP-32; test: Dephosphorylation of phospho-Ser137-DARPP-32 by recombinant PP2C isoforms; format: biochemical, rat; settings: phospho-Ser137-DARPP-32 as substrate; Mn^2+ or Mg^2+
[11] = pNPP hydrolysis by recombinant PP2C isoforms (phosphatase assay); format: biochemical, rat; settings: for Vmax / kcat / Km: pNPP as substrate; for Km: 37° C.
Procedure: The activity of PP2C isoforms using pNPP as substrate was assayed as previously described (Brumel et al., 1997). […] The reaction was stopped by addition of 1 ml of 0.1 M NaOH, and the initial rate of p-nitrophenol release was determined spectrophotometrically at 405 nm (using a molar extinction coefficient of 18 000 M−1 cm−1).
(§3) Kinetic parameters (Km and Vmax) were determined from Lineweaver-Burk plots.
Legend Table 7. Enzymatic activities of PP2C isoforms assayed using pNPP as substrate. Phosphatase activity was measured using pNPP as substrate by the change in absorbance at 405 nm. Km and Vmax values were calculated from Lineweaver-Burk plots of the data.

[12] = test system: phospho-Ser137-DARPP-32; test: Dephosphorylation of phospho-Ser137-DARPP-32 by recombinant PP2C isoforms; format: biochemical, rat; settings: [^32P]phospho-Ser137 DARPP-32 as substrate; in the presence of 10 mM Mn^2+
Procedure: The activity of PP2C isoforms using ^32P-DARPP (phosphorylated at Ser137) was assayed at 37° C. in a reaction mixture containing 25 mM Tris-HCl, pH 7.5, 10 mM MnCl2, 1% BSA, and […] substrate, in a total volume of […]. Reactions were stopped by addition of […] of 50% trichloroacetic acid. Samples were then incubated on ice for 30 min and centrifuged at 10,000 g for 10 min at 4° C. Radioactivity recovered in the supernatant was measured by Cerenkov counting in a scintillation counter (Beckman).
as §3
Legend Table 8. Enzymatic activities of PP2C isoforms assayed using [^32P]phospho-Ser137 DARPP-32 as substrate. Phosphatase activity was measured by the release of ^32P, and Km and Vmax values were calculated from Lineweaver-Burk plots of the data.

[13] = Hippocampus, 5 mg/kg i.p., 15 min
[14] = Hippocampus, 10 mg/kg i.p., 15 min
[15] = Hippocampus, 20 mg/kg i.p., 15 min
[16] = Striatum, 10 mg/kg i.p., 15 min
[17] = Striatum, 20 mg/kg i.p., 15 min

Question: Which “effect of fluoxetine alone on DARPP-32 phosphorylation” value [1] does the source give for `CNCCC(Oc1ccc(C(F)(F)F)cc1)c1ccccc1` (stereo not shown) [Fluoxetine] here?
Answer: no effect

Question: What about the “total inhibitor-1 protein” value ([2]; hippocampus) of the same molecule?
Answer: 98%

Question: And the “total inhibitor-1 protein” value ([2]; prefrontal cortex)?
Answer: 102%

Question: What about the “total inhibitor-1 protein” value ([2]; striatum) of the same molecule?
Answer: 97%

Question: And the “total DARPP-32 protein” value ([3]; hippocampus)?
Answer: 121%

Question: What about the “total DARPP-32 protein” value ([3]; prefrontal cortex) of the same molecule?
Answer: 123%

Question: And the “total DARPP-32 protein” value ([3]; striatum)?
Answer: 102%

Question: What about the “DARPP-32 mRNA expression” value ([4]; hippocampus and frontal cortex) of the same molecule?
Answer: increased

Question: What about the “DARPP-32 mRNA expression” value ([4]; striatum) of the same molecule?
Answer: not in striatum

Question: What about the “Percent Phospho-Thr34” value ([5]; Cortex, 5 mg/kg i.p., 15 min) of the same molecule?
Answer: 144(7.4)* Percent

Question: And the “Percent Phospho-Thr75” value ([5]; Cortex, 5 mg/kg i.p., 15 min)?
Answer: 86(7.0)* Percent

Question: And the “Percent Phospho-Thr34” value ([5]; Cortex, 10 mg/kg i.p., 15 min)?
Answer: 140(4.7)* Percent

Question: And the “Percent Phospho-Thr75” value ([5]; Cortex, 10 mg/kg i.p., 15 min)?
Answer: 85(4.2)* Percent

Question: What about the “Percent Phospho-Thr75” value ([5]; Cortex, 20 mg/kg i.p., 15 min) of the same molecule?
Answer: 82(7.3)* Percent

Question: What about the “Percent Phospho-Thr34” value [5, 13] of the same molecule?
Answer: 150(3.8)* Percent

Question: What about the “Percent Phospho-Thr75” value [5, 13] of the same molecule?
Answer: 84(6.4)* Percent

Question: And the “Percent Phospho-Thr34” value [5, 14]?
Answer: 142(6.2)* Percent

Question: What about the “Percent Phospho-Thr75” value [5, 14] of the same molecule?
Answer: 87(3.0)* Percent

Question: And the “Percent Phospho-Thr34” value [5, 15]?
Answer: 141(11.6)* Percent

Question: And the “Percent Phospho-Thr75” value [5, 15]?
Answer: 88(3.0)* Percent

Question: What about the “Percent Phospho-Ser137” value ([5]; Striatum, 5 mg/kg i.p., 15 min) of the same molecule?
Answer: 120(8.7) Percent

Question: What about the “Percent Phospho-Thr34” value ([5]; Striatum, 5 mg/kg i.p., 15 min) of the same molecule?
Answer: 123(5.0)* Percent

Question: What about the “Percent Phospho-Thr75” value ([5]; Striatum, 5 mg/kg i.p., 15 min) of the same molecule?
Answer: 95(3.1) Percent

Question: What about the “Percent Phospho-Ser102” value [5, 16] of the same molecule?
Answer: 108(7.5) Percent

Question: And the “Percent Phospho-Thr34” value [5, 16]?
Answer: 155.2(12.9)* Percent

Question: What about the “Percent Phospho-Thr75” value [5, 16] of the same molecule?
Answer: 84.6(8.9)* Percent

Question: What about the “Percent Phospho-Thr34” value [5, 17] of the same molecule?
Answer: 141(7.6)* Percent

Question: And the “Percent Phospho-Thr75” value [5, 17]?
Answer: 92(2.1)* Percent

Question: And the “fraction of DARPP-32 phosphorylated at Thr-34, Thr-75, or Ser-137” value ([5]; chronic fluoxetine 10 mg/kg 19 days, challenged with saline, versus chronic saline/saline, normalized to total DARPP-32)?
Answer: no differences

Question: What about the “ability of a challenge to increase phosphorylation at Ser-137” value ([5]; striatum, chronic fluoxetine 10 mg/kg 19 days, challenge 10 mg/kg) of the same molecule?
Answer: abolished

Question: What about the locomotion [6] of the same molecule?
Answer: not significantly affected

Question: And the “effect on immobility in the tail-suspension test” value ([7]; DARPP-32 KO mice)?
Answer: strongly attenuated

Question: What about the “immobility in the tail-suspension test” value ([7]; WT mice, 5 min trial) of the same molecule?
Answer: decreased immobility

Question: And the “inhibitor-1 mRNA expression” value [8]?
Answer: no effects

Question: With `COc1ccc(C2CNC(=O)C2)cc1OC1CCCC1` (stereo not shown) [rolipram] as the molecule, how does the anti-depressant efficacy [9] read?
Answer: has anti-depressant efficacy

B1: PP2Ca: recombinant his-tagged alpha isoform of protein phosphatase 2C cloned from rat striatum (protein)
chain: MGAFLDKPKMEKHNAQGQGNGLRYGLSSMQGWRVEMEDAHTAVIGLPSGLETWSFFAVYDGHAGSQVAKYCCEHLLDHITNNQDFKGSAGAPSVENVKNGIRTGFLEIDEHMRVMSEKKHGADRSGSTAVGVLISPQHTYFINCGDSRGLLCRNRKVHFFTQDHKPSNPLEKERIQNAGGSVMIQRVNGSLAVSRALGDFDYKCVHGKGPTEQLVSPEPEVHDIERSEEDDQFIILACDGIWDVMGNEELCDFVRSRLEVTDDLEKVCNEVVDTCLYKGSRDNMSVILICFPNAPKVSAEAVKKEAELDKYLENRVEEIIKKQGEGVPDLVHVMRTLASENIPSLPPGGELASKRNVIEAVYNRLNPYKNDDTDSASTDDMW
modifications: left off: small tags and cut ends
notes: recombinant his-tagged alpha isoform of protein phosphatase 2C cloned from rat striatum
Question: For B1, which “divalent cation concentration for maximal activity” value [10] is on record?
Answer: 4 to 5 mM

Question: What about the “Vmax of pNPP hydrolysis, Mn^2+ compared to Mg^2+ (higher)” value ([11]; 20 mM Mn^2+ versus 20 mM Mg^2+) of the same molecule?
Answer: approximately 50 fold

Question: And the Vmax ([11]; in the presence of 20 mM Mg^2+)?
Answer: 0.20 µmol/mg/min

Question: And the kcat ([11]; in the presence of 20 mM Mg^2+)?
Answer: 0.16 s⁻¹

Question: And the Km ([11]; in the presence of 20 mM Mg^2+)?
Answer: 3100 µM

Question: What about the Vmax ([11]; in the presence of 20 mM Mn^2+) of the same molecule?
Answer: 7.49 µmol/mg/min

Question: And the kcat ([11]; in the presence of 20 mM Mn^2+)?
Answer: 5.83 s⁻¹

Question: And the Km ([11]; in the presence of 20 mM Mn^2+)?
Answer: 1530 µM

Question: And the Km [12]?
Answer: 13.1 µM

Question: And the Vmax [12]?
Answer: 0.39 µmol/mg/min

Question: What about the kcat [12] of the same molecule?
Answer: 0.31 s⁻¹
